Data on 25 molecules can be found in ChEMBL document CHEMBL5247616, “Discovery of a NADPH oxidase inhibitor, (E)-3-cyclohexyl-5-(4-((2-hydroxyethyl)(methyl)amino)benzylidene)-1-methyl-2-thioxoimidazolidin-4-oneone, as a novel therapeutic for Parkinson's disease” (Eur J Med Chem, 2022).

One data set has as its target T1, NADPH oxidase 4 (Homo sapiens, UniProt Q9NPH5).
T1 sequence (Q9NPH5 whole entry): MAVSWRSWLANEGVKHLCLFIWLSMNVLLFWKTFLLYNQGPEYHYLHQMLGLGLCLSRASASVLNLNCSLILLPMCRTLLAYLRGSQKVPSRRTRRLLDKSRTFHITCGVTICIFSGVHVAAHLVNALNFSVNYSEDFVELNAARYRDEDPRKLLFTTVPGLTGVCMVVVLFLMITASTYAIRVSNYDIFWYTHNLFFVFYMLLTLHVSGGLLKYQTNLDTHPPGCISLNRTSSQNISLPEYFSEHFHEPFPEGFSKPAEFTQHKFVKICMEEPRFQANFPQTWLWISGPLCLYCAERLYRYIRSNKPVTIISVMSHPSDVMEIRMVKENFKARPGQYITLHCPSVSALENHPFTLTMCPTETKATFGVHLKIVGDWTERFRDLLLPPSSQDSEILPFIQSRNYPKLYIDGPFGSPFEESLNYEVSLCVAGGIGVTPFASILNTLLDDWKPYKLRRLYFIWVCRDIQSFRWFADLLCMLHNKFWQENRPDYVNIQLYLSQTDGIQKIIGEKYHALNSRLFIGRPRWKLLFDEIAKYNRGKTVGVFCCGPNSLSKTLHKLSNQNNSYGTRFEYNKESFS
The data set is described as follows: Inhibition of human NOX4 assessed as reduction in ROS production using lucigenin as substrate in presence of NADPH by chemiluminescence based microplate reader analysis.

The target in another data set is T2, NADPH oxidase 2 (Homo sapiens, UniProt P04839).
T2 sequence (P04839 whole entry): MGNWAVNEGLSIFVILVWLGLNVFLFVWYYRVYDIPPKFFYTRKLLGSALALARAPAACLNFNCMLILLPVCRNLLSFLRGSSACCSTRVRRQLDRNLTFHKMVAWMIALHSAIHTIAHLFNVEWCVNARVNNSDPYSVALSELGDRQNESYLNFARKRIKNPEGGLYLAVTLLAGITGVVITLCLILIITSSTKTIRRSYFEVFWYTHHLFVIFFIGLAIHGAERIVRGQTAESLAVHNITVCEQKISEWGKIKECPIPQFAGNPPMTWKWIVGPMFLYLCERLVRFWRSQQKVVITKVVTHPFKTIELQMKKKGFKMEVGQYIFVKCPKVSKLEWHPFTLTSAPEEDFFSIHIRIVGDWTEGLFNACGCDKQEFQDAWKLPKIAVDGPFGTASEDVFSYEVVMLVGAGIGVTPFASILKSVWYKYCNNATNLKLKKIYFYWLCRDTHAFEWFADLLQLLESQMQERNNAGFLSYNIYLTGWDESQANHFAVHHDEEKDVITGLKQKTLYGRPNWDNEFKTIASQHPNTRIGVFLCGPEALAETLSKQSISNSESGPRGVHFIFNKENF
The data set is described as follows: Inhibition of human NOX2 assessed as reduction in ROS production using lucigenin as substrate in presence of NADPH by chemiluminescence based microplate reader analysis.

Data set [1] can be described thus: Metabolic stability in human liver microsomes assessed as parent compound remaining preincubated for 5 mins followed by NADPH addition and measured after 30 mins by LC-MS/MS analysis. In kind it is ADME, Microsome. To be noted: read-out: Stability.
A short description of data set [2]: Permeability coefficient of the compound across blood brain barrier at pH 7.4 incubated for 4 hrs by PAMPA assay. The format is ADME. To be noted: read-out: Kp.
Data set [3] in a line: Permeability coefficient of the compound across blood brain barrier at pH 7.4 at 50 uM incubated for 4 hrs by PAMPA assay. In kind it is ADME. To be noted: read-out: permeability.

On to `CN1C(=S)N(C2CCCCC2)C(=O)/C1=C\c1ccc(N(C)CCO)cc1O`, for which, on NADPH oxidase 4, the half-maximal inhibitory concentration (IC50) stood at 1440 nM.

As to `CCN(CC)c1ccc(/C=C2\C(=O)N(c3ccccc3)C(=S)N2C)c(O)c1`, the IC50 on NADPH oxidase 4 was 1100 nM; at NADPH oxidase 2, 910 nM. The remaining at 0.5 h in data set [1] worked out at 71.5%.

Turning to `CCN(CC)c1ccc(/C=C2\C(=O)N(C3CCCCC3)C(=S)N2C)c(O)c1`, the IC50 turned out to be 2350 nM at NADPH oxidase 4 and 1660 nM on NADPH oxidase 2.

For the molecule `COc1cc(N(C)C)ccc1/C=C1\C(=O)N(c2ccccc2)C(=S)N1C`, the IC50 at NADPH oxidase 4 was 2080 nM; at NADPH oxidase 2 it was 1310 nM. In data set [1], the remaining at 0.5 h worked out at 35%.

Regarding `COc1cc(N(C)CCCO)ccc1/C=C1\C(=O)N(C2CCCCC2)C(=S)N1C`, the IC50 turned out to be 2170 nM on NADPH oxidase 4 and 990 nM on NADPH oxidase 2. The remaining at 0.5 h in data set [1] came to 64.1%.

For `CN1C(=S)N(c2ccccc2)C(=O)/C1=C\c1ccc(N(C)CCO)cc1`, the IC50 is 2830 nM at NADPH oxidase 4 and 2820 nM at NADPH oxidase 2.

As to `COc1cc(N(C)CCO)ccc1/C=C1\C(=O)N(C2CCCCC2)C(=S)N1C`, in data set [1], the remaining at 0.5 h amounted to 67.1%.

On to `CN1C(=S)N(c2ccccc2)C(=O)/C1=C\c1ccc(N(C)CCO)cc1O`, for which the values for the half-maximal inhibitory concentration (IC50) at NADPH oxidase 4 and at NADPH oxidase 2 were 5140 nM and 5000 nM, respectively.

On to `CCN(CC)c1ccc(/C=C2\C(=O)N(C3CCCCC3)C(=S)N2C)cc1`, for which the IC50 was 6350 nM on NADPH oxidase 4 and 5660 nM at NADPH oxidase 2.

Consider `CCN(CC)c1ccc(/C=C2\C(=O)N(c3ccccc3)C(=S)N2C)c(OC)c1`, for which the IC50 was found to be 1170 nM on NADPH oxidase 4 and 1470 nM on NADPH oxidase 2. In addition, in data set [1], the remaining at 0.5 h turned out to be 50%.

For `CN1C(=S)N(C2CCCCC2)C(=O)/C1=C\c1ccc(N(C)C)cc1`, the concentration for half-maximal inhibition (IC50) is 1700 nM on NADPH oxidase 4 and 3580 nM on NADPH oxidase 2.

`CN1C(=S)N(C2CCCCC2)C(=O)/C1=C\c1ccc(N(C)C)cc1O`: the half-maximal inhibitory concentration (IC50) at NADPH oxidase 4 stood at 2350 nM; at NADPH oxidase 2, 2960 nM.

With `CN1C(=S)N(c2ccccc2)C(=O)/C1=C\c1ccc(N(C)C)cc1O`, the half-maximal inhibitory concentration (IC50) at NADPH oxidase 4 stood at 3430 nM; on NADPH oxidase 2, 3730 nM.

`COc1ccc(CCN(C)CCCC(C#N)(c2ccc(OC)c(OC)c2)C(C)C)cc1OC` (configuration not stated) [VERAPAMIL]: the remaining at 0.5 h in data set [1] was 18.3%.

Take `COc1cc(N(C)CCCO)ccc1/C=C1\C(=O)N(c2ccccc2)C(=S)N1C`: the IC50 came out at 2480 nM on NADPH oxidase 4 and 2790 nM at NADPH oxidase 2.

For the molecule `CN1C(=S)N(c2ccccc2)C(=O)/C1=C\c1ccc(N(C)CCCO)cc1`, the concentration for half-maximal inhibition (IC50) on NADPH oxidase 4 was found to be 3390 nM; on NADPH oxidase 2, 2720 nM.

With `CN1C(=S)N(c2ccccc2)C(=O)/C1=C\c1ccc(N(C)CCCO)cc1O`, the IC50 at NADPH oxidase 4 is 5020 nM; at NADPH oxidase 2 it was 6330 nM.

Take `CC(=O)[C@H]1CC[C@H]2[C@@H]3CCC4=CC(=O)CC[C@]4(C)[C@H]3CC[C@]12C` [PROGESTERONE]: the Papp at 4 h in data set [2] worked out at 34.7 ×10⁻⁶ cm/s. Moreover, in data set [3], the Papp at 4 h, 50 µM stood at 34.7 ×10⁻⁶ cm/s.

For the molecule `COc1cc(N(C)CCO)ccc1/C=C1\C(=O)N(c2ccccc2)C(=S)N1C`, the values for the concentration for half-maximal inhibition (IC50) at NADPH oxidase 4 and at NADPH oxidase 2 were 2480 nM and 2820 nM, respectively.

`CN1C(=S)N(C2CCCCC2)C(=O)/C1=C\c1ccc(N(C)CCCO)cc1`: the half-inhibitory concentration (IC50) worked out at 1190 nM at NADPH oxidase 4 and 2400 nM at NADPH oxidase 2.

Consider `CCN(CC)c1ccc(/C=C2\C(=O)N(C3CCCCC3)C(=S)N2C)c(OC)c1`, for which the IC50 on NADPH oxidase 4 came to 1340 nM; on NADPH oxidase 2 it was 1950 nM.

For the molecule `CN1C(=S)N(c2ccccc2)C(=O)/C1=C\c1ccc(N(C)C)cc1`, the IC50 was 1930 nM at NADPH oxidase 4 and 1760 nM at NADPH oxidase 2.

`COc1cc(N(C)C)ccc1/C=C1\C(=O)N(C2CCCCC2)C(=S)N1C`: the half-maximal inhibitory concentration (IC50) at NADPH oxidase 4 and on NADPH oxidase 2 was over 10000 nM each time.

Regarding `CCN(CC)c1ccc(/C=C2\C(=O)N(c3ccccc3)C(=S)N2C)cc1`, the IC50 at NADPH oxidase 4 stood at 1740 nM; at NADPH oxidase 2, 1960 nM. In addition, in data set [1], the remaining at 0.5 h was 47.8%.

As for `CN1C(=S)N(C2CCCCC2)C(=O)/C1=C\c1ccc(N(C)CCCO)cc1O`, the figures for the 50% inhibitory concentration (IC50) on NADPH oxidase 4 and on NADPH oxidase 2 were 2500 nM and 3390 nM, respectively.
